In brackets after ≈: the same amount, converted by molar mass.
Assays:
Type in all cases: cell-based
[1] = test system: Trichophyton rubrum (ATCCMYA4607); assay: Test Example 4 antifungal activity test, minimum inhibitory concentration (MIC100); conditions: Sabouraud medium, 32° C. for 72 hours
Procedure: (§1) Test Microbial Strains: Trichophyton rubrum (ATCCMYA4607), and Microsporum canis (IFM63627)
(§2) The antifungal activity was studied by partially modifying the method of Test Example 2. Trichophyton rubrum was cultured in a Sabouraud medium and Microsporum canis was cultured in a 1/10 Sabouraud medium, at 32° C. for 168 hours to form spores. For Trichophyton rubrum, hyphae were peeled off from the surface of the medium and recovered in a tube, physiological saline (Otsuka Normal Saline; containing 9 g of sodium chloride in 1000 mL) was added, these were wholly admixed using a disposable loop (type 1 (1 μL)) for dispersion, and a spore suspension containing the hyphae was recovered. […] The spore suspensions containing the hyphae of Trichophyton rubrum and Microsporum canis, respectively, were filtered through a cell strainer ((40 μm). The spores were recovered from the filtrate by centrifugation (3500 rpm, 5 minutes) and washed twice with physiological saline, and then a spore suspension was prepared (1×10^7 spores/mL). 10 μL of the spore suspension was inoculated into a Sabouraud medium to which the test compound dissolved in DMSO was added to have a predetermined concentration. Trichophyton rubrum, Microsporum canis was cultured at 32° C. for 72 hours, then the presence or absence of colony growth was investigated, and the minimum inhibitory concentration (MIC100) was determined.

[2] = test system: Microsporum canis (IFM63627); assay: as above; conditions: Sabouraud medium, 32° C. for 72 hours
Procedure: as §1, §2

[3] = test system: Malassezia restricta (IFM55992); assay: Test Example 3-2 antifungal activity test, minimum fungicidal concentration after 1 minute; conditions: 1 minute contact, MLNA medium, 32° C. for 72 hours, read-out: Minimum fungicidal concentration (MFC100)
Procedure: Test Microbial Strain: Malassezia restricta (IFM55992) The Malassezia microbe (Malassezia restricta) cultured in a CHROMagar™ Malassezial Candida Prepared medium (peptone, special enzyme substrate mixture, chloramphenicol, olive oil, agar, manufactured by Kanto Chemical Co., Inc.) for 5 to 7 days was suspended in physiological saline, and a suspension thereof was prepared in such a way as to have an absorbance of 0.025 at 600 nm. Thereto, the test compound dissolved in DMSO was added in such a way as to provide a final concentration of 200, 100, 50, or 25 ppm, and after 1 minute, 10 μL of the suspension and 10 mL of physiological saline were placed in a syringe and stirred, and the syringe was connected to a 37 mm Quality Monitor (manufactured by Pall Corporation) followed by filtration and washing twice with 10 ml of physiological saline. The membrane filter was removed from the Quality Monitor, placed on a Leeming & Notman agar Modified medium (MLNA medium) (peptone, glucose, yeast extract, dried bovine bile, glycerol, glycerin stearate, Tween60, olive oil, agar), and subjected to culturing at 32° C. for 72 hours, the presence or absence of colony growth was investigated, and the minimum fungicidal concentration MFC100) was determined.

[4] = test system: Trichophyton rubrum (ATCCMYA4607); assay: Test Example 5 antifungal activity test, minimum fungicidal concentration (MFC100) by treatment time
Procedure: as §1
(§3) Trichophyton rubrum was cultured in a Sabouraud medium and Microsporum canis was cultured in a 1/10 Sabouraud medium, at 32° C. for 168 hours to form spores. For Trichophyton rubrum, hyphae were peeled off from the surface of the medium and recovered in a tube, physiological saline (Otsuka Normal Saline; containing 9 g of sodium chloride in 1000 mL) was added, these were wholly admixed using a disposable loop (type 1 (1 μL)) for dispersion, and a spore suspension containing the hyphae was recovered. For Microsporum canis, 10 mL of physiological saline was added directly onto the medium, and the surface was rubbed using a disposable loop to recover a spore suspension containing hyphae. The spore suspensions containing the hyphae of Trichophyton rubrum and Microsporum canis, respectively, were filtered through a cell strainer (\40 μm). The spores were recovered from the filtrate by centrifugation (3500 rpm, 5 minutes) and washed twice with physiological saline, and then a spore suspension was prepared (1×10^7 spores/mL). 10 μL of the spore suspension was inoculated into 90 μL of physiological saline to which test compound dissolved in DMSO was added to have a predetermined concentration. Every time a predetermined time elapsed, 10 μL of a test liquid containing the spores was collected, the spores were recovered by centrifugation (3500 rpm, 5 minutes) and washed twice with physiological saline, and then a 10 μL spore suspension was prepared. The 10 μL spore suspension was spotted onto a Sabouraud medium and subjected to culturing at 32° C. for 72 hours, the presence or absence of colony growth was investigated, and the minimum fungicidal concentration (MFC100) was determined.

[5] = test system: Microsporum canis (IFM63627); assay: as above
Procedure: as §1, §3

[6] = test system: Malassezia furfur (IFM 55951); assay: Test Example 3-1 antifungal activity test, minimum fungicidal concentration after 1 minute; conditions: 1 minute contact, CHROMagar medium, 32° C. for 72 hours, read-out: Minimum fungicidal concentration (MFC100)
Procedure: (§4) Test Microbial Strains: Malassezia furfur (IFM 55951), Malassezia sympodialis (IFM 48588), and Malassezia globosa (IFM 51946) The Malassezia microbe (Malassezia furfur, Malassezia sympodialis, or Malassezia globosa) cultured in a CHROMagar™ Malassezia/Candida Prepared medium (peptone, special enzyme substrate mixture, chloramphenicol, olive oil, agar, manufactured by Kanto Chemical Co., Inc.) for 5 to 7 days was suspended in physiological saline, and a suspension thereof was prepared in such a way as to have an absorbance of 0.025 at 600 nm. Thereto, the test compound dissolved in DMSO was added in such a way as to provide a final concentration of 200, 100, 50, or 25 ppm, and after 1 minute, 10 μL of the suspension and 10 mL of physiological saline were placed in a syringe and stirred, and the syringe was connected to a 37 mm Quality Monitor (manufactured by Pall Corporation) followed by filtration and washing twice with 10 mL of physiological saline. The membrane filter was removed from the Quality Monitor, placed on a CHROMagar™ Malassezial Candida Prepared medium, and was subjected to culturing at 32° C. for 72 hours, the presence or absence of colony growth was investigated, and the minimum fungicidal concentration (MFC100) was determined.

[7] = test system: Malassezia globosa (IFM 51946); assay: as above; conditions: 1 minute contact, CHROMagar medium, 32° C. for 72 hours, read-out: Minimum fungicidal concentration (MFC100)
Procedure: as §4

[8] = test system: Malassezia sympodialis (IFM 48588); assay: as above; conditions: 1 minute contact, CHROMagar medium, 32° C. for 72 hours, read-out: Minimum fungicidal concentration (MFC100)
Procedure: as §4

MIC [1]: 5 µg/mL (≈ 19.8 µM)
MIC [2]: 5 µg/mL (≈ 19.8 µM)
SMILES: Cc1ccc(-c2nc(C#N)[nH]c2Cl)cc1Cl [Compound No. 6, 5-Chloro-4-(3-chloro-4-methylphenyl)-1H-imidazole-2-carbonitrile]
MFC [3]: 200 µg/mL (≈ 793 µM)
MFC ([4]; Treatment time 1 Hour): 50 µg/mL (≈ 198 µM)
MFC ([4]; Treatment time 48 Hours): 10 µg/mL (≈ 39.7 µM)
MFC ([4]; Treatment time 72 Hours): 5 µg/mL (≈ 19.8 µM)
MFC ([5]; Treatment time 24 Hours): 50 µg/mL (≈ 198 µM)
MFC ([5]; Treatment time 96 Hours): 10 µg/mL (≈ 39.7 µM)
MFC [6]: 50 µg/mL (≈ 198 µM)
MFC [7]: 50 µg/mL (≈ 198 µM)
MFC [8]: 50 µg/mL (≈ 198 µM)
